The source of these data is patent US7109197B2, “N-phenyl-4-(4-pyridyl)-2-pyrimidineamine derivatives” (Syngenta Crop Protection, Inc., priority 2000, dated 2006).

SMILES strings stand for the structures. Read-outs that look alike come from different tables or passages of the source.

The subject of one series is Venturia inaegualis. Put plainly: Assay B-5: Residual protective activity against Venturia inaegualis on apples (scab on apple). The class given is in vivo. Particulars: Venturia inaegualis on apple seedlings cv. McIntosh; 0.02% active substance, spray. The procedure: Assay B-5: Residual Protective Activity Against Venturia inaegualis on Apples (Scab on Apple) 4 week old apple seedlings cv. McIntosh are treated with the formulated testcompound (0.02% active substance) in a spray chamber. One day after application apple plants are inoculated by spraying a spore suspension (4×10^5 conidia/ml) on the test plants. After an incubation period of 4 days at 21° C. and 95% r. h. the plants are placed for 4 days at 21° C. and 60% r. h. in a greenhouse. After another 4 day incubation period at 21° C. and 95% r. h. the disease incidence is assessed.

The test system of the next series is Erysiphe graminis. Nature of the series: Assay B-6: Effect against Erysiphe graminis on barley (powdery mildew); residual protective / systemic activity. The class given is in vivo. As to conditions: 0.02% active substance spray (residual) or 0.002% soil (systemic), variant not stated. The procedure: Assay B-6: Effect Against Erysiphe graminis on Barley (Powdery Mildew on Barley) a) Residual Protective Activity […] The infected plants are placed in a greenhouse at 22°. 12 days after infection, the fungal attack is evaluated. b) Systemic Activity […] […] 48 hours later, the plants are dusted with conidia of the fungus. The infected plants are placed in a greenhouse at 22° C. 12 days after infection, the disease incidence is evaluated.

In series [1] the test system is Pyrenophora teres (Helminthosporium). Nature of the series: Assay B-10: Effect against Pyrenophora teres (Helminthosporium)/barley (net blotch on barley). In kind it is in vivo. Particulars: Pyrenophora teres on barley cv. Regina, 0.02% active substance, spray; for pest or weed control at 0.02 % strength: 96 h, read-out: B10 activity. In a few lines: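 One-week-old barley cv. Regina sprayed with formulated compound at 0.02% active substance, then inoculated 2 days later with 3×10^4 conidia/ml. Held 2 days at 20° C/95% r.h., then 2 days at 20° C/60% r.h.; disease incidence scored 4 days after inoculation.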

A further series relates to Septoria nodorum. Nature of the series: Assay B-12: Effect against Septoria nodorum/wheat (Septoria leaf spot on wheat). In kind it is in vivo. Particulars: Septoria nodorum on wheat cv. Arina, 0.02% active substance, spray; for pest or weed control at 0.02 % strength: Parastagonospora nodorum, 264 h, read-out: B12 activity.
Series [2] deals with Botrytis cinerea. Nature of the series: Assay B-7: Botrytis cinerea/grape (Botrytis on grapes). Particulars: Botrytis cinerea on grape seedlings cv. Gutedel; 0.02% active substance, spray. The class given is in vivo. The procedure: Assay B-7: Botrytis cinerea/Grape (Botrytis on Grapes) 5 week old grape seedlings cv. Gutedel are treated with the formulated testcompound (0.02% active substance) in a spray chamber. Two days after application grape plants are inoculated by spraying a spore suspension (1×10^6 conidia/ml) on the test plants. After an incubation period of 4 days at 21° C. and 95% r. h. in a greenhouse the disease incidence is assessed.

In series [3] the test system is Botrytis cinerea. Put plainly: Assay B-8: Effect against Botrytis cinerea/tomato (Botrytis on tomatoes). The class given is in vivo. Particulars: Botrytis cinerea on tomato cv. Roter Gnom; 0.02% active substance, spray. On the procedure:
Assay B-8: Effect Against Botrytis cinerea/Tomato (Botrytis on Tomatoes) 4 week old tomato plants cv. Roter Gnom are treated with the formulated testcompound 0.02% active substance) in a spray chamber. Two days after application tomato plants are inoculated by spraying a spore suspension (1×10^5 conidia/ml) on the test plants. After an incubation period of 4 days at 20° C. and 95% r. h. in a greenhouse the disease incidence is assessed.

The subject of a further series is Pyricularia oryzae. In kind it is in vivo. Particulars: Pyricularia oryzae on rice cv. Sasanishiki; 0.02% active substance, spray.
The test system of the next series is Fusarium culmorum. In kind it is in vivo.
[4] abbreviates: Fusarium culmorum, wheat seeds cv. Orestis in pouch, 0.002% active substance.

Turning to `COCC(C)Nc1cc(-c2ccnc(Nc3cccc(Cl)c3)n2)cc(F)n1` (centres unmarked) [Compound 7], the B5 activity entry in the series on Venturia inaegualis is on record as “+ (the activity observed in the corresponding test system is 70% or more)”. For the same molecule, in the series on Erysiphe graminis, the B6 activity entry is reported as “+ (the activity observed in the corresponding test system is 70% or more)”. Also, in [1], the B10 activity result is recorded as “+ (the activity observed in the corresponding test system is 70% or more)”.
`FC(F)(F)CNc1cc(-c2ccnc(Nc3cccc(Cl)c3)n2)ccn1` [Compound 103]: the melting point (usually the temperature of the solid-liquid transition) fell in the range of 222 to 223 °C. For the same molecule, in the series with Erysiphe graminis, the B6 activity result was “+ (the activity observed in the corresponding test system is 70% or more)”. Moreover, in series [1], the pest or weed control at 0.02 % strength is over 70%. Moreover, the pest or weed control at 0.02 % strength in the series on Septoria nodorum was over 70%.
`CN(C)c1cc(-c2ccnc(Nc3cccc(Cl)c3)n2)ccn1` [Compound 59] registered a melting point of 178 to 179 °C. In the series on Erysiphe graminis, the B6 activity entry was “+ (the activity observed in the corresponding test system is 70% or more)”. Moreover, in series [1], the pest or weed control at 0.02 % strength is over 70%. Besides, the pest or weed control at 0.02 % strength in the series with Septoria nodorum is over 70%.
For `CC(=O)OCC(C)Nc1cc(-c2ccnc(Nc3cccc(Cl)c3)n2)ccn1` (centres unmarked) [Compound 50], in the series on Venturia inaegualis, the B5 activity result is on record as “+ (the activity observed in the corresponding test system is 70% or more)”. Also, the B6 activity result in the series on Erysiphe graminis is given as “+ (the activity observed in the corresponding test system is 70% or more)”. The B7 activity result in the series on Botrytis cinerea [2] is “+ (the activity observed in the corresponding test system is 70% or more)”. Moreover, in the series with Botrytis cinerea [3], the B8 activity entry was “+ (the activity observed in the corresponding test system is 70% or more)”. Also, in the series with Pyricularia oryzae, the B9 activity result is “+ (the activity observed in the corresponding test system is 70% or more)”. Also, the B10 activity result in series [1] was “+ (the activity observed in the corresponding test system is 70% or more)”. Also, the B12 activity result in the series with Septoria nodorum is recorded as “+ (the activity observed in the corresponding test system is 70% or more)”.
Turning to `CC(C)Nc1cc(-c2ccnc(Nc3cccc(Cl)c3)n2)ccn1` [Compound 68], the melting point fell in the range of 184 to 185 °C. For the same molecule, the B8 activity entry in the series with Botrytis cinerea [3] is given as “+ (the activity observed in the corresponding test system is 70% or more)”. Besides, the pest or weed control at 0.02 % strength in series [1] was over 70%. Moreover, the B11 activity result in the series on Fusarium culmorum (setting [4]) is on record as “+ (the activity observed in the corresponding test system is 70% or more)”. Also, in the series with Septoria nodorum, the pest or weed control at 0.02 % strength is over 70%.
Take `COCC(C)Nc1cc(-c2ccnc(Nc3cccc(OC(F)(F)C(F)F)c3)n2)ccn1` (centres unmarked) [Compound 5]: the B10 activity result in series [1] is listed as “+ (the activity observed in the corresponding test system is 70% or more)”. Besides, in the series on Fusarium culmorum (in vivo), the B11 activity entry is “+ (key: +: the activity observed in the corresponding test system is 70% or more)”. For the same molecule, the B12 activity entry in the series on Septoria nodorum was “+ (the activity observed in the corresponding test system is 70% or more)”.
As for `CCC(CO)Nc1cc(-c2ccnc(Nc3cccc(Cl)c3)n2)ccn1` (centres unmarked) [Compound 31], the B5 activity result in the series with Venturia inaegualis is recorded as “+ (the activity observed in the corresponding test system is 70% or more)”. For the same molecule, the B7 activity result in the series on Botrytis cinerea [2] is on record as “+ (the activity observed in the corresponding test system is 70% or more)”. In addition, in the series with Botrytis cinerea [3], the B8 activity result is “+ (the activity observed in the corresponding test system is 70% or more)”. In addition, in series [1], the B10 activity entry is recorded as “+ (the activity observed in the corresponding test system is 70% or more)”. The B11 activity entry with Fusarium culmorum (in vivo) was “+ (key: +: the activity observed in the corresponding test system is 70% or more)”.
Regarding `Nc1cc(-c2ccnc(Nc3cccc(Cl)c3)n2)ccn1` [Compound 58], the melting point lay in the range of 214 to 215 °C. In addition, the B5 activity entry with Venturia inaegualis is recorded as “+ (the activity observed in the corresponding test system is 70% or more)”. Also, in the series on Erysiphe graminis, the B6 activity result is recorded as “+ (the activity observed in the corresponding test system is 70% or more)”. Besides, the B7 activity entry with Botrytis cinerea [2] was “+ (the activity observed in the corresponding test system is 70% or more)”. Moreover, in the series on Botrytis cinerea [3], the B8 activity result was “+ (the activity observed in the corresponding test system is 70% or more)”. Besides, the B9 activity result in the series on Pyricularia oryzae is “+ (the activity observed in the corresponding test system is 70% or more)”. In addition, the pest or weed control at 0.02 % strength in series [1] is over 70%. Besides, the pest or weed control at 0.02 % strength with Septoria nodorum was over 70%.
The molecule `CC(=O)Nc1cc(-c2ccnc(Nc3cccc(Cl)c3)n2)ccn1` [Compound 61] showed a melting point of 245 to 247 °C. In the series on Fusarium culmorum (setting [4]), the B11 activity entry was “+ (the activity observed in the corresponding test system is 70% or more)”.
Turning to `OCCNc1cc(-c2ccnc(Nc3cccc(Cl)c3)n2)ccn1` [Compound 37], in the series with Venturia inaegualis, the B5 activity result is “+ (the activity observed in the corresponding test system is 70% or more)”. The B6 activity entry in the series on Erysiphe graminis is given as “+ (the activity observed in the corresponding test system is 70% or more)”. Moreover, the B7 activity entry in the series with Botrytis cinerea [2] is listed as “+ (the activity observed in the corresponding test system is 70% or more)”. For the same molecule, the B8 activity result in the series with Botrytis cinerea [3] is “+ (the activity observed in the corresponding test system is 70% or more)”. The B9 activity result in the series on Pyricularia oryzae is “+ (the activity observed in the corresponding test system is 70% or more)”. In series [1], the B10 activity result was “+ (the activity observed in the corresponding test system is 70% or more)”. The B12 activity result in the series on Septoria nodorum is “+ (the activity observed in the corresponding test system is 70% or more)”.
On to `COCCNc1cc(-c2ccnc(Nc3cccc(Cl)c3)n2)ccn1` [Compound 34], for which, in the series with Botrytis cinerea [2], the B7 activity result was “+ (the activity observed in the corresponding test system is 70% or more)”. The B8 activity entry with Botrytis cinerea [3] is recorded as “+ (the activity observed in the corresponding test system is 70% or more)”. The B10 activity entry in series [1] is reported as “+ (the activity observed in the corresponding test system is 70% or more)”. For the same molecule, the B11 activity entry in the series with Fusarium culmorum (in vivo) is “+ (key: +: the activity observed in the corresponding test system is 70% or more)”. In addition, the B12 activity entry with Septoria nodorum was “+ (the activity observed in the corresponding test system is 70% or more)”.
With `COC(OC)C(C)Nc1cc(-c2ccnc(Nc3cccc(Cl)c3)n2)ccn1` (centres unmarked) [Compound 65], in the series on Venturia inaegualis, the B5 activity entry is “+ (the activity observed in the corresponding test system is 70% or more)”. Moreover, the B6 activity entry in the series on Erysiphe graminis is given as “+ (the activity observed in the corresponding test system is 70% or more)”. In addition, the B7 activity entry with Botrytis cinerea [2] is “+ (the activity observed in the corresponding test system is 70% or more)”. Moreover, the B8 activity result with Botrytis cinerea [3] was “+ (the activity observed in the corresponding test system is 70% or more)”. Further, the B9 activity entry with Pyricularia oryzae is “+ (the activity observed in the corresponding test system is 70% or more)”. The B10 activity entry in [1] is on record as “+ (the activity observed in the corresponding test system is 70% or more)”. Also, the B12 activity result in the series on Septoria nodorum is recorded as “+ (the activity observed in the corresponding test system is 70% or more)”.
For `Clc1cccc(Nc2nccc(-c3ccnc(NC4CCOCC4)c3)n2)c1` [Compound 83], in the series with Botrytis cinerea [3], the B8 activity result was “+ (the activity observed in the corresponding test system is 70% or more)”. Besides, the B10 activity entry in series [1] is listed as “+ (the activity observed in the corresponding test system is 70% or more)”. In addition, in the series with Fusarium culmorum (in vivo), the B11 activity entry was “+ (key: +: the activity observed in the corresponding test system is 70% or more)”. Besides, the B12 activity result in the series with Septoria nodorum is “+ (the activity observed in the corresponding test system is 70% or more)”.
On to `CC(C)=CCNc1cc(-c2ccnc(Nc3cccc(Cl)c3)n2)ccn1` [Compound 81], for which the B6 activity result in the series with Erysiphe graminis is “+ (the activity observed in the corresponding test system is 70% or more)”. Besides, the B8 activity result in the series with Botrytis cinerea [3] is on record as “+ (the activity observed in the corresponding test system is 70% or more)”. The B10 activity entry in [1] is given as “+ (the activity observed in the corresponding test system is 70% or more)”. Further, in the series on Septoria nodorum, the B12 activity entry is listed as “+ (the activity observed in the corresponding test system is 70% or more)”.
